# Tests used:
# [1] = test system: Human alphaherpesvirus 1; assay: Tested for mean day to death of nonsurvivors against HSV-1 infection in mice at 200 mg/kg per day; assay type: functional
# [2] = test system: Human alphaherpesvirus 1; assay: Tested for mean day to death of nonsurvivors against HSV-1 infection in mice at 50 mg/kg per day; assay type: functional
# [3] = test system: Human alphaherpesvirus 1; assay: In vitro antiviral activity against herpesvirus, HSV-1,E-377 strain by plaque reduction assay in human foreskin fibroblasts; assay type: functional; conditions: read-out: ED50 (the source's name)
# [4] = test system: Human alphaherpesvirus 2; assay: In vitro antiviral activity against herpesvirus,HSV-2,HEET strain by plaque reduction assay in human foreskin fibroblasts; assay type: functional; conditions: read-out: ED50 (the source's name)
# [5] = test system: Human alphaherpesvirus 1; assay: Tested for mean day to death of nonsurvivors against HSV-1 infection in mice at 12.5 mg/kg per day; assay type: functional
# [6] = test system: Human alphaherpesvirus 1; assay: In vitro antiviral activity against herpesvirus, HSV-1, E-377 strain by plaque reduction assay in human foreskin fibroblasts.; assay type: functional; conditions: read-out: ID50 (the source's name)
# [7] = In vitro antiviral activity against herpesvirus, HSV-JEN strain by plaque reduction assay in human foreskin fibroblasts.; assay type: functional, herpes simplex virus; conditions: Human alphaherpesvirus 1; read-out: ID50 (the source's name)
# [8] = test system: Human alphaherpesvirus 2; assay: In vitro antiviral activity against herpesvirus, HSV-2, JEN strain by plaque reduction assay in human foreskin fibroblasts; assay type: functional; conditions: read-out: ED50 (the source's name)
# [9] = test system: Human alphaherpesvirus 2; assay: In vitro antiviral activity against herpesvirus, HSV-2, MS strain by plaque reduction assay in human foreskin fibroblasts; assay type: functional; conditions: read-out: ED50 (the source's name)
# [10] = test system: Human alphaherpesvirus 1; assay: Number of survivors per number of HSV-1 infected mice treated with 12.5 mg/kg per day; 2/10; assay type: functional
# [11] = test system: Human alphaherpesvirus 1; assay: Number of survivors per number of HSV-1 infected mice treated with 200 mg/kg per day; 4/10; assay type: functional
# [12] = test system: Human alphaherpesvirus 1; assay: Number of survivors per number of HSV-1 infected mice treated with 50 mg/kg per day; 0/10; assay type: functional
# [13] = test system: Human alphaherpesvirus 2; assay: In vitro antiviral activity against herpesvirus, HSV-2, MS strain by plaque reduction assay in human foreskin fibroblasts.; assay type: functional; conditions: read-out: ID50 (the source's name)
# [14] = test system: Human alphaherpesvirus 2; assay: In vitro antiviral activity against herpesvirus,HSV-2,X-79 strain by plaque reduction assay in human foreskin fibroblasts; assay type: functional; conditions: read-out: ED50 (the source's name)
# [15] = test system: Human alphaherpesvirus 2; assay: In vitro antiviral activity against herpesvirus, HSV-2, X-79 strain by plaque reduction assay in human foreskin fibroblasts.; assay type: functional; conditions: read-out: ID50 (the source's name)
# [16] = In vitro antiviral activity against herpesvirus, HSV-HEET strain by plaque reduction assay in human foreskin fibroblasts.; assay type: functional, herpes simplex virus; conditions: Human alphaherpesvirus 1; read-out: ID50 (the source's name)
# [17] = test system: Raji; assay: Tested for the inhibition of diffuse early antigen production assayed by immunofluorescent monoclonal antibody.; assay type: functional; conditions: Homo sapiens
# [18] = test system: Human alphaherpesvirus 3; assay: In vitro antiviral activity tested against herpesvirus, VZV, Ellen strain by plaque reduction assay in human foreskin fibroblasts.; conditions: Human alphaherpesvirus 3, read-out: ED50
# [19] = test system: Human alphaherpesvirus 3; assay: In vitro antiviral activity against herpesvirus, VZV, Ellen strain by plaque reduction assay in human foreskin fibroblasts.; conditions: Human alphaherpesvirus 3, read-out: ID50
# [20] = test system: Human alphaherpesvirus 3; assay: In vitro antiviral activity tested against herpesvirus, VZV, OKA strain by plaque reduction assay in human foreskin fibroblasts.; conditions: Human alphaherpesvirus 3, read-out: ED50
# [21] = test system: Human alphaherpesvirus 3; assay: In vitro antiviral activity against herpesvirus, VZV, OKA strain by plaque reduction assay in human foreskin fibroblasts.; conditions: Human alphaherpesvirus 3, read-out: ID50
# [22] = species on record: Homo sapiens; assay: The drug concentration was determined to reduce proliferation of human foreskin fibroblasts to 50% of untreated controls in proliferation assay.; assay type: functional; conditions: read-out: ID50 (the source's name)
structure (smiles),measurement,setting,value
Nc1nc2c(ncn2COCCO)c(=O)[nH]1 [ACYCLOVIR],MDD,[1],12.3
same,MDD,[2],8
same,EC50,[3],0.08 µg/mL
same,EC50,[4],0.06 µg/mL
same,MDD,[5],7.8
same,IC50,[6],> 100 µg/mL
same,IC50,[7],> 100 µg/mL
same,EC50,[8],0.07 µg/mL
same,EC50,[9],0.09 µg/mL
same,Survivors / treated,[10],2
same,Survivors / treated,[11],4
same,Survivors / treated,[12],0
same,IC50,[13],> 100 µg/mL
same,EC50,[14],0.1 µg/mL
same,IC50,[15],> 100 µg/mL
same,IC50,[16],> 100 µg/mL
same,EC50,[17]; read-out: ED50 (the source's name),3.8 µg/mL
same,IC50,[17]; read-out: ID50 (the source's name),> 100 µg/mL
same,EC50,[18],2.3 µg/mL
same,IC50,[19],> 100 µg/mL
same,EC50,[20],3.7 µg/mL
same,IC50,[21],> 100 µg/mL
same,IC50,[22],165 µg/mL

# From ChEMBL document CHEMBL1124752, “Cyclobut-A and cyclobut-G: broad-spectrum antiviral agents with potential utility for the therapy of AIDS” (J Med Chem, 1990)
